In patent US20130261134A1, “MESYLATE SALT FORMS OF A POTENT HCV INHIBITOR” (Boehringer Ingelheim International GmbH, priority 2012, published 2013):

Test: Solubility in the physiological pH range
Format: physicochemical
Conditions: aqueous buffer; physiological pH range of 2-6.8

With `Cn1c(C2(NC(=O)c3ccc4c(C5CCCC5)c(-c5ncc(Br)cn5)n(C)c4c3)CCC2)nc2ccc(/C=C/C(=O)O)cc21` [Compound (1), (E)-3-[2-(1-{[2-(5-Bromo-pyrimidin-2-yl)-3-cyclopentyl-1-methyl-1H-indole-6-carbonyl]-amino}-cyclobutyl)-3-methyl-3H-benzimidazol-5-yl]-acrylic acid] the solubility was under 0.2 µg/mL.
